This is an account of results in patent US20240190880A1 (THE REGENTS OF THE UNIVERSITY OF MICHIGAN, priority 2021, published 2024).

A word on the DC50: it is the concentration at which degradation of the target reaches its halfway point.

The target in the first experiment is T1, ER (Homo sapiens, UniProt P03372).
T1 construct: host or cells: T47D and MCF7 human breast cancer cells
T1 sequence (P03372 1-595): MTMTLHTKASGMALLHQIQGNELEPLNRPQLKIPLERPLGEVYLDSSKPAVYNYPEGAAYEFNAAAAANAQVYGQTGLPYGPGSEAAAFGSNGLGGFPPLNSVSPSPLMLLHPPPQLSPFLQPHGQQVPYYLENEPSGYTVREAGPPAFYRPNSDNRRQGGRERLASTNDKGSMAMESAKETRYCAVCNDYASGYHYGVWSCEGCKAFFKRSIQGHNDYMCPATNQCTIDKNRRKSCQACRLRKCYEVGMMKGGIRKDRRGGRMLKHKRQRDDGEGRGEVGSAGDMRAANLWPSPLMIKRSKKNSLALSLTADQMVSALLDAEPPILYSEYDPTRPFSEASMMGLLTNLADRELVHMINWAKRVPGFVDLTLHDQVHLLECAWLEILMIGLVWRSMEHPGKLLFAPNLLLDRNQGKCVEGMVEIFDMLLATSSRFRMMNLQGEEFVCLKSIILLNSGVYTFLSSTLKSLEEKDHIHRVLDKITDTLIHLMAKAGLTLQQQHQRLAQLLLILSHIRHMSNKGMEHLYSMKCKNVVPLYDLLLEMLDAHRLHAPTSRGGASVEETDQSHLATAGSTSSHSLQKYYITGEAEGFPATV
Put plainly: ER degradation activity, in-cell western blot analysis in T47D cells. In kind it is cell-based. The settings on record: 16 hours, Table A does not say which cell line (T47D or MCF7), read-out: Potency (DC50). How it is done: ER degradation activity was evaluated in the human breast cancer cell line T47D and MCF7 purchased from the American Type Culture Collection (ATCC), Manassas, VA, and maintained and cultured in Dulbecco's Modified Eagle's medium (DMEM) containing 10% fetal bovine serum, 1 unit/ml of penicillin and 1 μg/ml of streptomycin.
The protocol for the in-cell western blot analysis: a. seed cells in black-sided/clear bottom 96- or 384-well plates at 40,000 or 10,000 cells/well, overnight; b. add diluted compounds (final 0.5% DMSO), 16 hours. […] RT 2 h, gentle shaking. Negative control: cells plus secondary antibodies (no primary antibodies); e. wash ×4 with PBS+0.05-0.1% Tween 20, gentel shaking; f. anti-rabbit-680 and anti-mouse-800 (both 1:1000 in LiCor block+0.05% Tween20, RT 1 h, gentle shaking, no light. LI-COR: 0.2% to reduce background; g. wash×4 with PBS+0.05% Tween 20, gental shaking; h. add 100 μL or 25 μL of PBS to each well and read on CLX plate reader. The relative ER percentage in treated cells were obtained by comparing the values of treated wells to those in untreated and DMSO-treated wells as 100%.
In the case of `C[C@@H]1Cc2c([nH]c3ccccc23)[C@@H](c2c(F)cc(N3CC[C@@H](CN4CCC(C(=O)N5Cc6cc7c(cc6C5)C(=O)N(C5CCC(=O)NC5=O)C7=O)CC4)C3)cc2F)N1CC(F)F` (stereo partly drawn) [E 91, 6-(1-(((S)-1-(4-((1R,3R)-2-(2,2-difluoroethyl)-3-methyl-2,3,4,9-tetrahydro-1H-pyrido[3,4-b]indol-1-yl)-3,5-difluorophenyl)pyrrolidin-3-yl)methyl)piperidine-4-carbonyl)-2-(2,6-dioxopiperidin-3-yl)-6,7-dihydropyrrolo[3,4-f]isoindole-1,3(2H,5H)-dione], the half-maximal degradation concentration (DC50) was less than 10 nM.

Turning to `O=C1CCC(N2C(=O)c3cc4c(cc3C2=O)CN(CCN2CCC3(CC2)CCN(c2ccc([C@@H]5c6ccc(O)cc6CC[C@@H]5c5ccccc5)cc2)CC3)C4)C(=O)N1` (mixture of isomers) [E 268, rac-2-(2,6-dioxopiperidin-3-yl)-6-(2-(9-(4-((1R,2S)-6-hydroxy-2-phenyl-1,2,3,4-tetrahydronaphthalen-1-yl)phenyl)-3,9-diazaspiro[5.5]undecan-3-yl)ethyl)-6,7-dihydropyrrolo[3,4-f]isoindole-1,3(2H,5H)-dione], the DC50 lay in the range of 10 to 100 nM.

On to `C[C@@H]1Cc2cc(O)ccc2[C@@H](c2c(F)cc(N3CCC4(CCN(C(=O)CN5Cc6cc7c(cc6C5)C(=O)N(C5CCC(=O)NC5=O)C7)C4)CC3)cc2F)N1CC(C)(F)F` (stereo partly drawn) [E 138], for which the DC50 lay within 10 to 100 nM.

On to `O=C1CCC(N2C(=O)c3cc4c(cc3C2=O)CN(CC2(F)CN(CC3CCN(c5ccc([C@@H]6c7ccc(O)cc7CC[C@@H]6c6ccccc6)cc5)CC3)C2)C4)C(=O)N1` (stereo partly drawn) [E 212, 2-(2,6-dioxopiperidin-3-yl)-6-((3-fluoro-1-((1-(4-((1R,2S)-6-hydroxy-2-phenyl-1,2,3,4-tetrahydronaphthalen-1-yl)phenyl)piperidin-4-yl)methyl)azetidin-3-yl)methyl)-6,7-dihydropyrrolo[3,4-f]isoindole-1,3(2H,5H)-dione], for which the DC50 is greater than 100 nM.

In the case of `O=C1CCC(N2C(=O)c3cc4c(cc3C2=O)CN(CC(=O)N2CCC3(CC2)CCN(c2ccc([C@@H]5c6ccc(O)cc6CC[C@@H]5c5ccc(F)cc5)cc2)CC3)CC4)C(=O)N1` (mixture of isomers) [E 165, rac-2-(2,6-dioxopiperidin-3-yl)-6-(2-(9-(4-((1R,2S)-2-(4-fluorophenyl)-6-hydroxy-1,2,3,4-tetrahydronaphthalen-1-yl)phenyl)-3,9-diazaspiro[5.5]undecan-3-yl)-2-oxoethyl)-5,6,7,8-tetrahydro-1H-pyrrolo[3,4-g]isoquinoline-1,3(2H)-dione], the half-maximal degradation concentration (DC50) lay in the range of 10 to 100 nM.

With `C[C@@H]1Cc2c([nH]c3ccccc23)[C@@H](c2c(F)cc(N3CCCC4(CCN(C(=O)CN5Cc6cc7c(cc6C5)C(=O)N(C5CCC(=O)NC5=O)C7=O)C4)C3)cc2F)N1CC(F)F` (stereo partly drawn) [E 78, 6-(2-(7-(4-((1R,3R)-2-(2,2-difluoroethyl)-3-methyl-2,3,4,9-tetrahydro-1H-pyrido[3,4-b]indol-1-yl)-3,5-difluorophenyl)-2,7-diazaspiro[4.5]decan-2-yl)-2-oxoethyl)-2-(2,6-dioxopiperidin-3-yl)-6,7-dihydropyrrolo[3,4-f]isoindole-1,3(2H,5H)-dione], the DC50 is greater than 100 nM.

As to `C[C@@H]1Cc2c([nH]c3ccccc23)[C@@H](c2c(F)cc(C3CCC(CN4CCC(N5Cc6cc7c(cc6C5)C(=O)N(C5CCC(=O)NC5=O)C7)CC4)CC3)cc2F)N1CC(F)F` (stereo partly drawn) [E 308, 3-(6-(1-((4-(4-((1R,3R)-2-(2,2-difluoroethyl)-3-methyl-2,3,4,9-tetrahydro-1H-pyrido[3,4-b]indol-1-yl)-3,5-difluorophenyl)cyclohexyl)methyl)piperidin-4-yl)-1-oxo-3,5,6,7-tetrahydropyrrolo[3,4-f]isoindol-2(1H)-yl)piperidine-2,6-dione], the DC50 lay within 10 to 100 nM.

In the case of `C[C@@H]1Cc2c([nH]c3ccccc23)[C@@H](c2c(F)cc(C3CCC(C(=O)N4CC(N5Cc6cc7c(cc6C5)C(=O)N(C5CCC(=O)NC5=O)C7=O)C4)CC3)cc2F)N1CC(F)F` (stereo partly drawn) [E249, 6-(1-(4-(4-((1R,3R)-2-(2,2-difluoroethyl)-3-methyl-2,3,4,9-tetrahydro-1H-pyrido[3,4-b]indol-1-yl)-3,5-difluorophenyl)cyclohexane-1-carbonyl)azetidin-3-yl)-2-(2,6-dioxopiperidin-3-yl)-6,7-dihydropyrrolo[3,4-f]isoindole-1,3(2H,5H)-dione], the half-maximal degradation concentration (DC50) is greater than 100 nM.

As for `C[C@@H]1Cc2c([nH]c3ccccc23)[C@@H](c2c(F)cc(N3CCC4(CCN(CC(=O)N5Cc6cc7c(cc6C5)C(=O)N(C5CCC(=O)NC5=O)C7)C4)C3)cc2F)N1CC(F)F` (stereo partly drawn) [E 75, 3-(6-(2-(7-(4-((1R,3R)-2-(2,2-difluoroethyl)-3-methyl-2,3,4,9-tetrahydro-1H-pyrido[3,4-b]indol-1-yl)-3,5-difluorophenyl)-2,7-diazaspiro[4.4]nonan-2-yl)acetyl)-1-oxo-3,5,6,7-tetrahydropyrrolo[3,4-f]isoindol-2(1H)-yl)piperidine-2,6-dione], the DC50 was in the range of 10 to 100 nM.

`C[C@@H]1Cc2c([nH]c3ccccc23)[C@@H](c2c(F)cc(N3CCC4(CC3)CN(C(=O)CN3Cc5cc6c(cc5C3)C(=O)N(C3CCC(=O)NC3=O)C6=O)C4)cc2F)N1CC(F)(F)F` (stereo partly drawn) [E 227, 6-(2-(7-(3,5-difluoro-4-((1R,3R)-3-methyl-2-(2,2,2-trifluoroethyl)-2,3,4,9-tetrahydro-1H-pyrido[3,4-b]indol-1-yl)phenyl)-2,7-diazaspiro[3.5]nonan-2-yl)-2-oxoethyl)-2-(2,6-dioxopiperidin-3-yl)-6,7-dihydropyrrolo[3,4-f]isoindole-1,3(2H,5H)-dione]: the DC50 was 10 to 100 nM.

With `C[C@@H]1Cc2c([nH]c3ccccc23)[C@@H](c2cnc(N3CCC4(CC3)CN(C(=O)CN3Cc5cc6c(cc5C3)C(=O)N(C3CCC(=O)NC3=O)C6=O)C4)nc2)N1CC(F)F` (stereo partly drawn) [E 259, 6-(2-(7-(5-((1R,3R)-2-(2,2-difluoroethyl)-3-methyl-2,3,4,9-tetrahydro-1H-pyrido[3,4-b]indol-1-yl)pyrimidin-2-yl)-2,7-diazaspiro[3.5]nonan-2-yl)-2-oxoethyl)-2-(2,6-dioxopiperidin-3-yl)-6,7-dihydropyrrolo[3,4-f]isoindole-1,3(2H,5H)-dione], the half-maximal degradation concentration (DC50) is less than 10 nM.

Turning to `O=C1CCC(N2C(=O)c3cc4c(cc3C2=O)CN(CC(=O)N2CC3(CCN(c5ccc([C@@H]6c7ccc(O)cc7CC[C@@H]6c6ccccc6)cc5)CC3)C2)CC4)C(=O)N1` (mixture of isomers) [E 163, rac-2-(2,6-dioxopiperidin-3-yl)-6-(2-(7-(4-((1R,2S)-6-hydroxy-2-phenyl-1,2,3,4-tetrahydronaphthalen-1-yl)phenyl)-2,7-diazaspiro[3.5]nonan-2-yl)-2-oxoethyl)-5,6,7,8-tetrahydro-1H-pyrrolo[3,4-g]isoquinoline-1,3(2H)-dione], the 50% degradation concentration (DC50) is 10 to 100 nM.

As to `C[C@@H]1Cc2c([nH]c3ccccc23)[C@@H](c2cnc(N3CCC4(CCN(C(=O)CN5Cc6cc7c(cc6C5)C(=O)N(C5CCC(=O)NC5=O)C7=O)CC4)CC3)nc2)N1CC(F)(F)F` (stereo partly drawn) [E 254, 2-(2,6-dioxopiperidin-3-yl)-6-(2-(9-(5-((1R,3R)-3-methyl-2-(2,2,2-trifluoroethyl)-2,3,4,9-tetrahydro-1H-pyrido[3,4-b]indol-1-yl)pyrimidin-2-yl)-3,9-diazaspiro[5.5]undecan-3-yl)-2-oxoethyl)-6,7-dihydropyrrolo[3,4-f]isoindole-1,3(2H,5H)-dione], the DC50 was less than 10 nM.

The same experiment, now with this note: compounds 16 hours, Table A does not say whether T47D or MCF7, read-out: Potency (DC50).
Turning to `O=C1CCC(N2C(=O)c3cc4c(cc3C2=O)CC2(C4)CN(C(=O)CN3CC(Oc4ccc([C@@H]5c6ccc(O)cc6CC[C@@H]5c5ccccc5)cc4)C3)C2)C(=O)N1` (stereo partly drawn) [E 502, 2′-(2,6-dioxopiperidin-3-yl)-1-(2-(3-(4-((1R,2S)-6-hydroxy-2-phenyl-1,2,3,4-tetrahydronaphthalen-1-yl)phenoxy)azetidin-1-yl)acetyl)-5′,7′-dihydro-1′H-spiro[azetidine-3,6′-cyclopenta[f]isoindole]-1′,3′(2′H)-dione], the DC50 was greater than 100 nM.

In the case of `O=C1CCC(N2Cc3cc4c(cc3C2=O)C(=O)N(CC2CN(CC3CCN(c5ccc([C@@H]6c7ccc(O)cc7CC[C@@H]6c6ccccc6)cc5)CC3)C2)C4)C(=O)N1` (stereo partly drawn) [E 508, 2-(2,6-dioxopiperidin-3-yl)-6-((1-((1-(4-((1R,2S)-6-hydroxy-2-phenyl-1,2,3,4-tetrahydronaphthalen-1-yl)phenyl)piperidin-4-yl)methyl)azetidin-3-yl)methyl)-2,3,5,6-tetrahydropyrrolo[3,4-f]isoindole-1,7-dione], the DC50 was greater than 100 nM.
